The assay has as its target purified human Factor XIa (Homo sapiens (Human), UniProt P03951). In words: Factor XIa Assay. Particulars: substrate Z-Gly-Pro-Arg-AFC; value printed in the compound table of Example 12; read-out: FXIa Ki. The class given is biochemical. The protocol:
The effectiveness of a compound of the present invention as an inhibitor of Coagulation Factor XIa can be determined using a relevant purified serine protease, and an appropriate synthetic substrate. The rate of hydrolysis of the chromogenic or fluorogenic substrate by the relevant serine protease was measured both in the absence and presence of compounds of the present invention. Assays were conducted at room temperature or at 37° C. […] A decrease in the rate of fluorescence change in the presence of inhibitor is indicative of enzyme inhibition. Such methods are known to one skilled in the art. The results of this assay are expressed as the inhibitory constant, Ki.
Factor XIa determinations were made in 50 mM HEPES buffer at pH 7.4 containing 150 mM NaCl, 5 mM CaCl2, and 0.1% PEG 8000 (polyethylene glycol; JT Baker or Fisher Scientific).
Times required to achieve equilibration between enzyme and inhibitor were determined in control experiments. Initial velocities of product formation in the absence (Vo) or presence of inhibitor (Vi) were measured. […]

Sequence of purified human Factor XIa (P03951 388-625): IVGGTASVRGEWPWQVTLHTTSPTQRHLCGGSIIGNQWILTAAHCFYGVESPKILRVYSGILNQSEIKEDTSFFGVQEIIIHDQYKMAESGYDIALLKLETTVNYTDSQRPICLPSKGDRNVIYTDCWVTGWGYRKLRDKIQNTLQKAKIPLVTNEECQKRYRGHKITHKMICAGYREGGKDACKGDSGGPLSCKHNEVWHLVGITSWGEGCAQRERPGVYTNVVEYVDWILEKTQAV
Sequence of purified human Factor XIa (P03951 19-387 partner): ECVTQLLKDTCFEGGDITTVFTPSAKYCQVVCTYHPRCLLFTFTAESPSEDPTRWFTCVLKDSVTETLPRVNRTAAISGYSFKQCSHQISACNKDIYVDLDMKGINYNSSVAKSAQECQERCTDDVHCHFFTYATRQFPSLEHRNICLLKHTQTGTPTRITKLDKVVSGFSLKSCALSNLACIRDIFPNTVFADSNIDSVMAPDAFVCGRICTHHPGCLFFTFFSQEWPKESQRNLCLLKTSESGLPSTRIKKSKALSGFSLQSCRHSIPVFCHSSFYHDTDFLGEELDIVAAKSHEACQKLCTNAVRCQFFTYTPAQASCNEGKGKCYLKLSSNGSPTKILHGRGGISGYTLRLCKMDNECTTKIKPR

What is called Ki is a measure of affinity in units of concentration, obtained from inhibition or displacement. In the case of `O=C(O)c1ccc(-c2cnc(C3CCc4cc(-c5cc(Cl)ccc5-n5cnnn5)c[n+]([O-])c43)[nH]2)s1` (stereo not shown) [Example 12, 5-(2-{3-[5-chloro-2-(1H-tetrazol-1-yl)phenyl]-1-oxido-6,7-dihydro-5H-cyclopenta[b]pyridin-7-yl}-1H-imidazol-5-yl)thiophene-2-carboxylic acid], the inhibition constant Ki is 3.08 nM.

(Values after US10081617B2, “Factor XIa inhibitors” (MERCK SHARP & DOHME CORP., priority 2015, dated 2018).)
